Like-named read-outs stand apart in the source and are kept apart here. Numbered stars: 1 amine (or outer) side, 2 acyl side, 3 side chain; on linkers, the order of the positions; unused ones are H or OH. Bridge positions count the residues as written; N and C are the ends. Square brackets hold non-standard residues; d marks the D form. Peptide text beside a SMILES is read from it. * marks the point of attachment. C20 diacid = O=C(O)CCCCCCCCCCCCCCCCCCC(=O)*; γGlu = O=C(O)[C@H](CCC(=O)[*:2])N[*:1]; 4Pal = N[C@@H](Cc1ccncc1)C(=O)O; CH2 = C([*:1])[*:2]; βAla = NCCC(=O)O
Target: T1, human NPRA (Homo sapiens, UniProt P16066)
T1 construct: Full-Length cDNA Cloning and Generation of Cell Lines Overexpressing Natriuretic Peptide Receptors (NPRs); expressed in transfected cells; host or cells: Jump-in T-Rex HEK293 cells, pJTI R4 CMV-TO MCS pA vector, tetracycline induction
T1 sequence (P16066 33-1061): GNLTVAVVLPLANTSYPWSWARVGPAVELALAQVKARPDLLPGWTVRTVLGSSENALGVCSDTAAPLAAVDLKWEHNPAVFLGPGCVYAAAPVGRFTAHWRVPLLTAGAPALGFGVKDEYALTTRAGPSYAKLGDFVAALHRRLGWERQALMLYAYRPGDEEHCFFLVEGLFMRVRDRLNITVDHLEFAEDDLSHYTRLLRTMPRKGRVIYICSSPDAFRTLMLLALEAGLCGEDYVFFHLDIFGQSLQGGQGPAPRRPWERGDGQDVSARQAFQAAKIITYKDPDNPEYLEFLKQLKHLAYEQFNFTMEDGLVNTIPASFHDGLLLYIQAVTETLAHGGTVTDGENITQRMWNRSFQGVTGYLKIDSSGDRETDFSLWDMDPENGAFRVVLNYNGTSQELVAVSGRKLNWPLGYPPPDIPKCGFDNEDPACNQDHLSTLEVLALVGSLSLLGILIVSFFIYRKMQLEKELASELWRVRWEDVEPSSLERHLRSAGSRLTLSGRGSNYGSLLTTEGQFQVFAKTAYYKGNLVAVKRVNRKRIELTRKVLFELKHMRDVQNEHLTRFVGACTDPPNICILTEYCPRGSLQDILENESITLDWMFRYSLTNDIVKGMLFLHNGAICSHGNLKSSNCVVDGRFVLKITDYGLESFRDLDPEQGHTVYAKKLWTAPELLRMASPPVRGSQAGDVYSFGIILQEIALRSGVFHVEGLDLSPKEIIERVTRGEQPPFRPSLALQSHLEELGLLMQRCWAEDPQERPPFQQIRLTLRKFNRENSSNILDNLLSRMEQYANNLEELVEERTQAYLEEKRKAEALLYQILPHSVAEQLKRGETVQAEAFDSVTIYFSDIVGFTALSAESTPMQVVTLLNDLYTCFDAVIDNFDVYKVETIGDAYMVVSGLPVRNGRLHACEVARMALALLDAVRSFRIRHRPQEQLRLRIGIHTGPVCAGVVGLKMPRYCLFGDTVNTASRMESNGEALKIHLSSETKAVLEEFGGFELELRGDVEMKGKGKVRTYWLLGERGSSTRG
Assay: Human NPRA cGMP activity assay (HTRF) in HEK293 cells overexpressing NPRA
Type: cell-based
Procedure: All sequences were verified by full-length sequencing performed by ACGT DNA Sequencing Services (Wheeling, IL). The target cDNA was cloned into pJTI R4 CMV-TO MCS pA vector and then co-transfected with pJT1R4 Int vector into Jump-in™ T-Rex™ HEK293 cells for mammalian inducible expression using Jump-in™ T-Rex™ HEK293 kit and Lipofectamine LTX and Plus Reagent following manufacturer's protocols, as briefly described below.
Jump-in™ T-Rex™ HEK293 cells were plated in a BioCOAT® poly-D-lysine coated 6-well plate (Becton Dickinson, cat no. 354413) at 1 million cells/well in 2 mL culture medium and incubated for 18 h at 37° C. and 5% CO2 to 50-70% confluence. A cDNA mix was made in a 50 mL tube by adding 1.5 μg target cDNA, 1.5 μg pJT1R4 Int vector, 3 μL Plus Reagent, and 300 μL Opti-MEM I sequentially into the tube. A reagent mix was made in a separate 50 mL tube by adding 7.5 μL Lipofectamine LTX into 300 μL Opti-MEM I. The mixtures were incubated for 5 min at room temperature. The cDNA mix was then transferred into the reagent mix, mixed well, and incubated for additional 30 min at room temperature. A 500 μL of cDNA/Lipofectamine complex was then transferred to the wells of the cell plate in which the culture medium was changed to 2 mL of transfection medium containing DMEM with 4.5 g/L D-glucose supplemented with 10% FBS-HI and 20 mM HEPES. Transfected cells were cultured for 48 h in an incubator at 37° C. and 5% CO2. A subclone or pool from each overexpressing cell line was maintained in culture medium with the addition of 2 mg/mL G418 sulfate for the clone selection based on its built-in resistance to G418 sulfate for at least 3 weeks with medium changed every 2-3 days.
NPRs were overexpressed in T-Rex™ HEK293 cells following the induction with 300 ng/mL tetracycline in culture medium for 48 h. Induced cell lines in an exponential growth phase were treated with 0.05% trypsin-EDTA for a few seconds at room temperature, harvested in cell medium containing FBS to neutralize the trypsin, counted, and cryopreserved at the density of 2 million cells/mL in cell preservation solution containing FBS-HI with 5% DMSO. Cryopreserved cells were stored at −80° C. for a few days prior to transferring to a liquid nitrogen tank. Induced cell lines were then used for suspension assays to measure the activity of polypeptides to stimulate cGMP production in cGMP assays or for the preparation of cell membranes to measure the binding activity of polypeptides in competitive radioligand binding assays, as described below.
Test polypeptides were added starting at 10 μM concentration and at 10-fold decreasing concentrations to obtain 8-point concentration-response curves (i.e., 10 μM to 1 pM). The quantity of cGMP generated was detected using HTRF® technology and normalized to maximum amount produced by 100 nM amidated rat ANP and the minimum amount produced by assay buffer. Detailed steps are outlined below.
Stock solutions of test polypeptides (2 mM) dissolved in DMSO were first diluted 100-fold in assay buffer containing HBSS with Ca^2+ and Mg^2+, 5 mM HEPES, 0.5 mM IBMX, and 0.1% BSA or 0.1% casein (pH 7.4). The polypeptides were further serially diluted in 1:10 dilution steps in assay buffer containing 0.1% BSA or 0.1% casein to generate 8-point 2× working stock solutions ranging from 20 μM to […].
A 10 μL cell suspension containing 4000 cells was plated in Costar® half-area white opaque 96-well plates (Corning, cat no. 3693). Then 10 μL of assay buffer (basal activity), 200 nM of amidated rat ANP (maximum activity) or 2× working stock solutions of test polypeptides were transferred into the plate. Final concentration of DMSO in each well was 0.5%. The plate was shaken for 15 sec and then incubated for 40 min at room temperature.
The cGMP generated was measured using cGMP kit following the manufacturer's directions, as described below.

[1] = cGMP Assay (EC50, pM) w/Casein hNPRA, assay buffer with 0.1% casein

Row | Compound | EC50 [1] [pM] | further results
1 | CC[C@H](C)[C@@H]1NC(=O)[C@H](CCCNC(=N)N)NC(=O)[C@H](CC(=O)O)NC(=O)[C@H]([C@@H](C)CC)NC(=O)[C@H](CCCNC(=N)N)NC(=O)CNC(=O)CNC(=O)[C@H](Cc2ccccc2)NC(=O)[C@@H](NC(=O)[C@H](CO)NC(=O)[C@H](CO)NC(=O)[C@H](CCCNC(=N)N)NC(=O)[C@H](CCCNC(=N)N)NC(=O)[C@H](Cc2ccncc2)NC(=O)[C@H](CO)NC(=O)CNC(=O)[C@H](CCCCN)NC(=O)[C@H](CCC(=O)O)NC(=O)[C@H](CCCCN)NC(=O)[C@H](CCC(=O)O)NC(=O)[C@H](CCCCN)NC(=O)[C@H](CCC(=O)O)NC(=O)CC[C@H](NC(=O)CCCCCCCCCCCCCCCCCCC(=O)O)C(=O)O)CSCSC[C@@H](C(=O)N2CCC[C@H]2C(=O)N[C@@H](CO)C(=O)N[C@@H](Cc2ccccc2)C(=O)N[C@@H](CCCNC(=N)N)C(=O)N[C@@H](Cc2c[nH]cn2)C(=O)NCC(=O)NCC(=O)N2CCC[C@H]2C(=O)N[C@@H](CO)C(=O)N[C@@H](CO)C(=O)NCC(=O)N[C@@H](C)C(=O)N2CCC[C@H]2C(=O)N2CCC[C@H]2C(=O)N2CCC[C@H]2C(=O)N[C@@H](CO)C(N)=O)NC(=O)CNC(=O)[C@H](CC(C)C)NC(=O)CNC(=O)[C@H](CO)NC(=O)[C@H](CCC(N)=O)NC(=O)[C@H](Cc2c[nH]cn2)NC(=O)CNC1=O [Example 2] | 1020 | –
2 | {C20 diacid-γGlu}-EKEKEKGEKGRSSCFGGRIDRIGHYSGLGCPSLRHGGPSSGAPPPS-NH2 (disulfide 14-30) [Example 51] | 361 | –
3 | CC[C@H](C)[C@@H]1NC(=O)[C@H](CCCNC(=N)N)NC(=O)[C@H](CC(=O)O)NC(=O)[C@H]([C@@H](C)CC)NC(=O)[C@H](CCCNC(=N)N)NC(=O)CNC(=O)CNC(=O)[C@H](Cc2ccccc2)NC(=O)[C@@H](NC(=O)[C@H](CO)NC(=O)[C@H](CO)NC(=O)[C@H](CCCNC(=N)N)NC(=O)[C@H](CCCNC(=N)N)NC(=O)[C@H](Cc2ccncc2)NC(=O)[C@H](CO)NC(=O)CNC(=O)[C@H](CCCCN)NC(=O)[C@H](CCC(=O)O)NC(=O)[C@H](CCCCN)NC(=O)[C@H](CCC(=O)O)NC(=O)[C@H](CCCCN)NC(=O)[C@H](CCC(=O)O)NC(=O)CC[C@H](NC(=O)CCCCCCCCCCCCCCCCCCC(=O)O)C(=O)O)CSSC[C@@H](C(=O)N[C@@H](CC(N)=O)C(=O)N[C@@H](CO)C(=O)N[C@@H](Cc2ccccc2)C(=O)N[C@@H](CCCNC(=N)N)C(=O)N[C@@H](Cc2ccncc2)C(N)=O)NC(=O)CNC(=O)[C@H](CC(C)C)NC(=O)CNC(=O)[C@H](CO)NC(=O)[C@H](CCC(N)=O)NC(=O)[C@H](C)NC(=O)CNC1=O [Example 15] ({C20 diacid-γGlu}-EKEKEKGS[4Pal]RRSSCFGGRIDRIGAQSGLGCNSFR[4Pal]-NH2; disulfide 14-30) | – | EC50 (assay buffer with 0.1% casein, read-out: cGMP Assay (EC50, pM) w/Casein hNPRA): 912 pM
4 | {C20 diacid-γGlu}-EKEKEKGEK[βAla]RSSCFGGRIDRIGHYSGLGCPSLRHGGPSSGAPPPS-NH2 (linker 14-30 via CH2) [Example 63] | 1090 | –
5 | CC[C@H](C)[C@@H]1NC(=O)[C@H](CCCNC(=N)N)NC(=O)[C@H](CC(=O)O)NC(=O)[C@H]([C@@H](C)CC)NC(=O)[C@H](CCCNC(=N)N)NC(=O)CNC(=O)[C@H](Cc2ccncc2)NC(=O)[C@H](Cc2ccccc2)NC(=O)[C@@H](NC(=O)[C@H](CO)NC(=O)[C@H](CO)NC(=O)[C@H](CCCNC(=N)N)NC(=O)[C@H](CCCNC(=N)N)NC(=O)[C@H](CC(C)C)NC(=O)[C@H](CO)NC(=O)CNC(=O)[C@H](CCCCN)NC(=O)[C@H](CCC(=O)O)NC(=O)[C@H](CCCCN)NC(=O)[C@H](CCC(=O)O)NC(=O)[C@H](CCCCN)NC(=O)[C@H](CCC(=O)O)NC(=O)CC[C@H](NC(=O)CCCCCCCCCCCCCCCCCCC(=O)O)C(=O)O)CSSC[C@@H](C(=O)N[C@@H](CC(N)=O)C(=O)N[C@@H](CO)C(=O)N[C@@H](Cc2ccccc2)C(=O)N[C@@H](CCCNC(=N)N)C(=O)N[C@@H](Cc2ccc(O)cc2)C(N)=O)NC(=O)CNC(=O)[C@H](CC(C)C)NC(=O)CNC(=O)[C@H](CO)NC(=O)[C@H](CCC(N)=O)NC(=O)[C@H](C)NC(=O)CNC1=O [Example 13] ({C20 diacid-γGlu}-EKEKEKGSLRRSSCF[4Pal]GRIDRIGAQSGLGCNSFRY-NH2; disulfide 14-30) | – | EC50 (assay buffer with 0.1% BSA, read-out: cGMP Assay (EC50, pM) w/BSA hNPRA): 145000 pM
